Data published in patent publication US20100316746A1, “Pesticidal Compound Mixtures” (Bayer CropScience AG, priority 2007, published 2010).

Legend:
Myzus persicae = assay: Myzus persicae-Test (sprayed cabbage leaves); format: in vivo; settings: 144 h, after 6 d, spray on cabbage leaves
Description: (§1) Solvent: 7 parts by weight of dimethylformamide Emulsifier: 2 parts by weight of alkylaryl polyglycolether
(§2) To produce a suitable preparation of active compound, 1 part by weight of active compound is mixed with the stated amount of solvent and emulsifier, and the concentrate is diluted with emulsifier-containing water to the desired concentration.
Cabbage leaves (Brassica oleracea) which are heavily infested by the green peach aphid (Myzus persicae) are treated by being sprayed with the preparation of the active compound at the desired concentration.
After the specified period of time, the mortality in % is determined. 100% means that all the aphids have been killed; 0% means that none of the aphids have been killed.

Phaedon cochleariae = assay: Phaedon cochleariae-Test (larvae, sprayed cabbage leaves); format: in vivo; settings: 144 h, after 6 d, spray on cabbage leaves
Description: as §1, §2
Cabbage leaves (Brassica oleracea) are treated by being sprayed with the preparation of the active compound in the desired concentration and are infested with larvae of the mustard beetle (Phaedon cochleariae) as long as the leaves are still moist.
After the specified period of time, the mortality in % is determined. 100% means that all the beetle larvae have been killed; 0% means that none of the beetle larvae have been killed.

SMILES	mortality at 0.8 ppm (Myzus persicae; 0.8 ppm)	mortality at 4 ppm (Phaedon cochleariae; 4 ppm)	mortality at 200 ppm (Myzus persicae)	mortality at 200 ppm (Phaedon cochleariae; 200 ppm)
CN/C(=N\[N+](=O)[O-])NCc1cnc(Cl)s1 [Clothianidin, clothianidin]	65%	55%		
CC(C)C1CCC(Cc2ccc(Cl)cc2)C1(O)Cn1cncn1 (centres unmarked) [Ipconazole, ipconazole]			10%	5%
COCC(=O)N(c1c(C)cccc1C)C(C)C(=O)OC (centres unmarked) [Metalaxyl, metalaxyl]			0%	
